How the values were obtained:
PPARγ = molecular target: T1, PPARγ (Homo sapiens, UniProt P37231); experiment: Transcriptional transactivation (luciferase reporter gene) assay; format: cell-based; conditions: any concentration tested; in words
T1 construct: expressed in transfected cells
T1 sequence (P37231 1-505): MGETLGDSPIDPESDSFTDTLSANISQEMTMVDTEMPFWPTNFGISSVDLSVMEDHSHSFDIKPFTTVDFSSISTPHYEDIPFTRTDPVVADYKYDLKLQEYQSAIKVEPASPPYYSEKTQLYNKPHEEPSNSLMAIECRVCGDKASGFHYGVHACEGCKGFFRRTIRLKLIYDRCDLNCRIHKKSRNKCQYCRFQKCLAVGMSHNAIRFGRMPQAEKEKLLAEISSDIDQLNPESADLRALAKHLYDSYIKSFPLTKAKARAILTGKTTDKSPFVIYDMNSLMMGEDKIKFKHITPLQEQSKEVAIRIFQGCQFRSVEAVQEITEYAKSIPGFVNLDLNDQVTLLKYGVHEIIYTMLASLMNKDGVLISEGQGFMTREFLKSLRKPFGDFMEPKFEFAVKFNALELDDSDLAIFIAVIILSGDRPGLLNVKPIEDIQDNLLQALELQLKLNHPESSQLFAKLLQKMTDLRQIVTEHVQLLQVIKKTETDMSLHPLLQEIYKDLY
T1 sequence (P19793 1-462 partner): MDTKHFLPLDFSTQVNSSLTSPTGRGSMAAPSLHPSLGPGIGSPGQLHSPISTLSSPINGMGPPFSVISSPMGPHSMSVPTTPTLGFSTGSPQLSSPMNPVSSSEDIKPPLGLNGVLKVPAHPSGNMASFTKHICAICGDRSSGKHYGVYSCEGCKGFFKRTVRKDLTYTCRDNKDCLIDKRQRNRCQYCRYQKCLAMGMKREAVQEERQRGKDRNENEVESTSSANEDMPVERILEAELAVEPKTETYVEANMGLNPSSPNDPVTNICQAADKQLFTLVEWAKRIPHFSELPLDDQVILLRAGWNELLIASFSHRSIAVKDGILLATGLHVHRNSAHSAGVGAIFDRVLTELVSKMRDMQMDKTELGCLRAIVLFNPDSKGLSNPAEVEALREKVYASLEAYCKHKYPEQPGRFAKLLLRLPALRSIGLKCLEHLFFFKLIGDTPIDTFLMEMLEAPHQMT
Method: In vitro vascular studies were carried out in rat isolated aortae by wire myography. PPARγ activation was investigated using reporter gene assays, a PPARγ competition-binding assay and an adipogenesis assay.

rat isolated aortae = experiment: In vitro vascular studies by wire myography; conditions: for Time-dependent relaxation of the rat aorta: 2 h (120 min), pre-contracted aortae
rat/Wistar [1] = experiment: Aripiprazole-induced catalepsy; format: in vivo; conditions: ip, 1 hour after aripiprazole po
Method: (§1) Animals were subjected to a protocol as illustrated in FIG. 5.
(§2) Rats were made to fast from 6 PM on the day before the experiment until sacrifice. Rats were weighed and orally (PO) administered aripiprazole. […] For measurement of catalepsy, the observations were performed three times at each observation time point. The animals were forced to hang with their right forepaw on the upper edge of a steel can (diameter: 6 cm, height: 10 cm). When the animals remained in the unnatural vertical position for 30 seconds or longer, they were judged to be positive responders for catalepsy.

rat/Wistar [2] = experiment: Aripiprazole-induced ptosis; format: in vivo; conditions: ip, 1 hour after aripiprazole po
Method: as §1, §2
The measurement of ptosis was performed as follows. Each animal was individually taken from the home cage and put on the experimenter's hand to observe the eyes. The ptosis score was determined for both eyes as described below, and the scores for the two eyes were added to obtain the total score (maximum score, 8) • 0: Normal • 1: Mild ptosis (upper eyelid covered ¼ of the eye) • 2: Moderate ptosis (upper eyelid covered ½ of the eye) • 3: Severe ptosis (upper eyelid covered ¾ of the eye) • 4: Complete ptosis (upper eyelid covered the entire eye)

3T3L1 cells = experiment: Induction of adipocyte differentiation (Oil Red O staining); format: cell-based; conditions: treated for 8 days
[3] = test system: small resistance mesenteric vessels and aorta; experiment: Chronic treatment of rats with CBD: vascular responses in isolated arteries; format: in vivo, rat; conditions: animals treated for 2 weeks

## CCCc1cc(O)c2c(c1)OC(C)(C)[C@@H]1CCC(C)=C[C@@H]21 [THCV, tetrahydrocannabivarin]
PPARγ
  PPARγ transcriptional activity: no effect
Rat isolated aortae; 10 μM
  Time-dependent relaxation of the rat aorta: 28.7±4.6 % relaxation
Rat isolated aortae; 10 μM, in words
  Effect on tone in pre-contracted aortae: no effect on tone until after 105 minutes
rat/Wistar [1]; 60 mg/kg
  Aripiprazole-induced catalepsy in rats: significantly decreased
rat/Wistar [2]; 60 mg/kg
  Aripiprazole-induced ptosis in rats: significantly decreased

## C=C(C)[C@@H]1CCC(C)=C[C@H]1c1c(O)cc(CCCCC)cc1O [CBD, cannabidiol]
Rat isolated aortae; 10 μM
  Time-dependent relaxation of the rat aorta: 69.7±4.0 % relaxation
Rat isolated aortae; 10 μM, after 2 h
  Residual relaxation (vasorelaxant effect minus the vasorelaxant effect of vehicle and time): 50.1±3.3 % relaxation
Rat isolated aortae; 2 h
  Basal tension over time: -0.03 ± 0.01 g
Rat isolated aortae; AM251 1 μM
  Time-dependent vascular responses with the CB1 receptor antagonist AM251: did not significantly affect
Rat isolated aortae; GW9662 1 μM, after 1 h of incubation
  Residual vasorelaxant effect in the presence of the PPARγ receptor antagonist GW9662: significantly reduced
Rat isolated aortae; L-NAME 300 μM, vs control conditions
  Residual vasorelaxant effect in the presence of the nitric oxide synthase inhibitor L-NAME: not different
Rat isolated aortae; PTX 200 ng ml−1, 2 h or capsaicin 10 μM, 1 h
  Vascular response over time after pre-treating arteries with PTX or capsaicin: no effect
Rat isolated aortae; SR144528 1 μM, between 45 min to 90 min
  Residual vasorelaxant effects with the CB2 receptor antagonist SR144528: significantly inhibited
Rat isolated aortae; calcium free, high potassium Krebs-Hensleit solution, 1 μM to 30 μM, concentration-dependent
  Potency and maximal contractile response to the re-introduction of calcium: significantly reduced
Rat isolated aortae; compared with control
  Vasorelaxant effect in arteries contracted with a high potassium buffer: no difference
  Vasorelaxant effect in vessels where tone was induced with U46619 in calcium free buffer: significantly blunted
Rat isolated aortae; endothelium-denuded
  Vasorelaxant effect in endothelium-denuded and control aortae: similar
3T3L1 cells
  Differentiation of 3T3 L1 cells to adipocytes (fat droplet accumulation, Oil Red O): signs of fat droplet accumulation were apparent at all concentrations tested
[3]
  Maximal response to methoxamine in the aorta: 1.63±0.21 g increase tension
  Potency of acetylcholine (pEC50) in the aorta: 5.37±0.40
  Potency of methoxamine (pEC50), small resistance mesenteric vessels: 5.79±0.10
rat/Wistar [1]; 120 mg/kg
  Aripiprazole-induced catalepsy in rats: significantly decreased
rat/Wistar [2]; 120 mg/kg
  Aripiprazole-induced ptosis in rats: significantly decreased

## COc1ccc(CCN(C)CCCC(C#N)(c2ccc(OC)c(OC)c2)C(C)C)cc1OC (stereo not drawn) [verapamil, reference compound]
Rat isolated aortae; more rapid onset than CBD
  Vasorelaxation of pre-constricted vessels: significant vasorelaxation
